Key:
C6 glioma cells = test: In vitro inhibitory effect against C6 glioma cells by MTT method; format: cell-based, rat; conditions: 48 h; for OD values 1: replicate 1; for OD values 2: replicate 2; for OD values 3: replicate 3
Procedure: (§1) 3. Cell line: C6 rat glioma cell lines for experiment is provided by Key Laboratory of Transplant Engineering and Immunology, Ministry of health, West China Hospital, Sichuan University.
(§2) (1) Cells, growing in serum-containing medium and serum-free medium and presenting exponential growth phase, were taken out, and digested with pancreatin, to form single cells. Tumor cells were still seeded in serum-containing medium, while tumor stem cells were seeded in serum-free medium. Their concentrations were both adjusted to 2.0×10^5/ml, and cells were seeded in 96 well plate, 100 μl for each well. Amongst, four groups were experimental groups, and one group was negative control; the medium without cells was used as blank control, and each group had five repeated wells. Culture was carried out in an incubator at 37° C. with 5% CO2 and saturated humidity for one night. When seeding in 96 well plate, peripheral wells were not used to avoid the edge effect.
(§3) (2) Next day after inoculation, cells attached before administration was carried out and static culture was kept for 48 h.
(§4) (3) Wells for normal control group of tumor cells were included, and the wells were not treated with drug, and only equal amount (100 μl) of complete medium was added. Experiment on normal control group was performed, together with above three groups.
(§5) (4) The culture was continued under 5% CO2 at 37° C., and after culturing for 48 h, cells were placed under inverted microscope for observation and taking a picture.
(§6) (5) On sterile bench board, 20 μL 0.5% MTT was added to each well, and the culture was continued for 4 h. At 37° C., the culture was stood for overnight (same time for each group), then OD values were tested using microplate reader, while the absorbance of each well was measured at […].
(§7) (6) Calculating inhibitory rate of cell growth Formula: Inhibitory rate of cell growth IR (%)=1−(OD value of cells in experimental group/OD value of cells in control group)×100%. (III) Statistical Analysis

[1] = tested on: human brain oligodendroglioma cells; test: Inhibitory effect of chlorogenic acid on proliferation of primary culture human brain oligodendroglioma cells (MTT method / WST-1); format: cell-based; conditions: 48 h
human brain glioma = test: Inhibitory effect of chlorogenic acid on transplanted glioma in mice (tumor weight); format: in vivo; conditions: 15 d; for Tumor weight: x ± s
Procedure: (1) Model establishment 50 mice were divided into 5 groups, 10 mice for each group. The solution of brain glioblastoma cell lines was suitably diluted, and inoculated in cortex of left temporal lobe of mice in five groups, respectively.
(2) Administration and intervention After inoculated for 24 h, five groups of mice were administrated by intraperitoneal injection. […] (3) Measuring inhibitory rate On the last day, administration was ceased, and all mice were sacrificed. Mice were dissected, and tissue of tumor was removed and weighed. Inhibitory Rate=(the Mean Tumor Weight of Control Group−the Mean Tumor Weight of Treatment Group)/the Mean Tumor Weight of Control Group×100%. (4) Statistical method The data were presented as mean±standard deviation (x±s), and statistical analysis was performed using SPSS15.0 software, and p<0.05 was considered to be a statistically significant difference. 3. Results

C6 glioma stem cells = test: In vitro inhibitory effect against C6 glioma stem cells by MTT method; format: cell-based, rat; conditions: 48 h; for OD values 1: replicate 1; for OD values 2: replicate 2; for OD values 3: replicate 3
Procedure: as §1
(1) C6 cells were seeded in traditional serum medium and sub-cultured in culture bottle. Cells in exponential phase of growth were washed with PBS solution, digested with 0.25% trypsin, and pipetted by self-made pasteur pipette, to form single cells. Cells were resuspended in SFM, stained with trypan blue, and counted. Cells were seeded in culture bottle with a bottom area of 25 cm^2 at a concentration of 1×10^5/well, and placed in an incubator at 37° C. with 5% CO2 and saturated humidity for culture.
The medium was sucked out and centrifuged before half of old medium was removed, then centrifuged at 800 rpm/min for 5 min. The supernatant was discarded. Cells are resuspended in SFM, and gentle pipette with self-made pasteur pipette was repeated, for dissociating cell dumps into single cells. In a ratio of 1:2 or 1:3, cells were seeded in culture bottles with a bottom area of 25 cm^2, and diluted with SFM to 6 ml; alternatively, at the same concentration, cells were seeded in 6 well plate. To each well, was added 2.5 ml SFM, and continued culturing in an incubator at 37° C. with 5% CO2 and saturated humidity.
as §2, with “Amongst, four groups were experimental groups, and one group was negative control; the medium without cells was used as blank control, and each group had five repeated wells.” left out
as §3, §4, §5, §6, §7

[2] = Rattus norvegicus, 16 μg/ml, read-out: Inhibitory rate (%)
[3] = Rattus norvegicus, 32 μg/ml, read-out: Inhibitory rate (%)
[4] = Rattus norvegicus, 64 μg/ml, read-out: Inhibitory rate (%)
[5] = Rattus norvegicus, 128 μg/ml, read-out: Inhibitory rate (%)
[6] = High dose 40 mg/kg intraperitoneal
[7] = Low dose 10 mg/kg intraperitoneal

With `O=C(/C=C/c1ccc(O)c(O)c1)O[C@@H]1C[C@](O)(C(=O)O)C[C@@H](O)[C@H]1O` [chlorogenic acid] the OD values mean (C6 glioma cells; 16 μg/ml) was 1.515, the “OD values 1” value (C6 glioma cells; 16 μg/ml) was 1.640 and the “OD values 2” value (C6 glioma cells; 16 μg/ml) was 1.553. The “OD values 3” value (C6 glioma cells; 16 μg/ml) was 1.351, the OD values mean (C6 glioma cells; 32 μg/ml) was 1.472 and the “OD values 1” value (C6 glioma cells; 32 μg/ml) was 1.558. The “OD values 2” value (C6 glioma cells; 32 μg/ml) was 1.573, the “OD values 3” value (C6 glioma cells; 32 μg/ml) was 1.286 and the OD values mean (C6 glioma cells; 64 μg/ml) was 1.326. The “OD values 1” value (C6 glioma cells; 64 μg/ml) was 1.314, the “OD values 2” value (C6 glioma cells; 64 μg/ml) was 1.247 and the “OD values 3” value (C6 glioma cells; 64 μg/ml) was 1.417. The OD values mean (C6 glioma cells; 128 μg/ml) was 1.028, the “OD values 1” value (C6 glioma cells; 128 μg/ml) was 1.021 and the “OD values 2” value (C6 glioma cells; 128 μg/ml) was 1.023. For the same compound, the “OD values 3” value (C6 glioma cells; 128 μg/ml) was 1.041, the inhibition at 16 µg/mL (C6 glioma cells; [2]) was 32.1% and the inhibition at 32 µg/mL (C6 glioma cells; [3]) was 34%. The inhibition at 64 µg/mL (C6 glioma cells; [4]) was 40.6%, the inhibition at 128 µg/mL (C6 glioma cells; [5]) was 53.9% and the “Cellular morphology under inverted microscope” value ([1]; compared with normal control group) was “obvious decrease of cell numbers”. The inhibition at 32 µg/mL ([1]; Homo sapiens, 32 μg/ml, read-out: Inhibitory rate (%)) was 39.9%, the inhibition at 64 µg/mL ([1]; Homo sapiens, 64 μg/ml, read-out: Inhibitory rate (%)) was 44.9% and the inhibition at 128 µg/mL ([1]; Homo sapiens, 128 μg/ml, read-out: Inhibitory rate (%)) was 60.4%. The “Inhibitory rate (%)” value (human brain glioma; [6]) was 60.58%, the “Tumor weight” value (human brain glioma; [6]) was 0.529 ± 0.168 g and the “Inhibitory rate (%)” value (human brain glioma; [7]) was 48.51%. For the same compound, the “Tumor weight” value (human brain glioma; [7]) was 0.690 ± 0.188 g, the “Inhibitory rate (%)” value (human brain glioma; Middle dose 20 mg/kg intraperitoneal) was 69.92% and the OD values mean (C6 glioma stem cells; 16 μg/ml) was 1.715. For the same compound, the “OD values 1” value (C6 glioma stem cells; 16 μg/ml) was 1.713, the “OD values 2” value (C6 glioma stem cells; 16 μg/ml) was 1.700 and the “OD values 3” value (C6 glioma stem cells; 16 μg/ml) was 1.731. The OD values mean (C6 glioma stem cells; 32 μg/ml) was 1.634, the “OD values 1” value (C6 glioma stem cells; 32 μg/ml) was 1.533 and the “OD values 2” value (C6 glioma stem cells; 32 μg/ml) was 1.739. For the same compound, the “OD values 3” value (C6 glioma stem cells; 32 μg/ml) was 1.631, the OD values mean (C6 glioma stem cells; 64 μg/ml) was 1.378 and the “OD values 1” value (C6 glioma stem cells; 64 μg/ml) was 1.367. The “OD values 2” value (C6 glioma stem cells; 64 μg/ml) was 1.358, the “OD values 3” value (C6 glioma stem cells; 64 μg/ml) was 1.410 and the OD values mean (C6 glioma stem cells; 128 μg/ml) was 1.223. For the same compound, the “OD values 2” value (C6 glioma stem cells; 128 μg/ml) was 1.200, the inhibition at 16 µg/mL (C6 glioma stem cells; [2]) was 23.2% and the inhibition at 32 µg/mL (C6 glioma stem cells; [3]) was 26.8%. It also gave an inhibition at 64 µg/mL (C6 glioma stem cells; [4]) of 38.2% and an inhibition at 128 µg/mL (C6 glioma stem cells; [5]) of 45.2%.
For `CC(=O)O[C@@]12CO[C@@H]1C[C@H](O)[C@@]1(C)C(=O)[C@H](O)C3=C(C)[C@@H](OC(=O)[C@H](O)[C@@H](NC(=O)OC(C)(C)C)c4ccccc4)C[C@@](O)([C@@H](OC(=O)c4ccccc4)[C@H]21)C3(C)C` [Positive control group, docetaxel, reference compound], the “Inhibitory rate (%)” value (human brain glioma; 5 mg/kg intraperitoneal) was 73.3% and the “Tumor weight” value (human brain glioma; 5 mg/kg intraperitoneal) was 0.389 ± 0.305 g.

Source: US10004713B2 (SICHUAN JIUZHANG BIOLOGICAL SCIENCE AND TECHNOLOGY CO., LTD, priority 2014, dated 2018)
